Measurements published in patent US8946394B2, “Conjugate for photodynamic diagnosis or therapy and method for preparing same” (Panaxem Co., Ltd., priority 2010, dated 2015).

System: HeLa cells
Experiment: Cytotoxicity test (MTT) with and without near infrared irradiation
Assay type: cell-based
Procedure: Cytotoxicity test was conducted on the nano-microsphere according to the present invention prepared from Example 1. HeLa cells as cancer cells were incubated in the RPMI 1640 culture medium containing 10% FBS and 1% penicillin in the presence of 5% CO2 at a temperature of 37° C. Then, for the cytotoxicity test, the incubated HeLa cells were dispensed on a 96-well plate at a cell number of 1×10^4 and then incubated for 24 hours. Next day, the nano-microspheres (nano-microspheres added with 1.25 mg of a photosensitizer) according to the present invention were diluted by concentrations, respectively, and then the diluted concentrations were put into each well at 100 μl.
After that, the cells were further incubated for 12 hours so that the nano-microspheres can act on the cells, and then near infrared wavelength light (670 nm) was irradiated at an amount of 1.2 J/cm^2. […]
Lastly, 20 μl of MTT reagent (3-(4,5-dimethylthiazol-2yl)-2,5-diphenyl-2H-tetrazolium bromide) was added to the cells after incubation was completed, followed by again incubating for 3˜4 hours. […] After that, the ELIZA analyzer was used to measure absorbance at 595 nm and thus comparison of the amount of formazan formed was conducted, to thereby confirm cell viability (%) and cytotoxicity of the conjugate (FIGS. 15 and 16).

CCCC(C)(C)c1cc(Oc2ccc3c(c2)/C2=N/c4c5ccc(Oc6cc(C(C)(C)CCC)c(OC)cc6C(C)(C)CCC)cc5c5[n]4[Zn][n]4/c(c6ccc(Oc7cc(C(C)(C)CCC)c(OC)cc7C(C)(C)CCC)cc6/c4=N/C3=N2)=N\C2=NC(=N\5)/c3ccc(Oc4ccc(C(=O)O)cc4)cc32)c(C(C)(C)CCC)cc1OC [Zn-Pc-COOH]
apoptosis / cell viability (%) (near infrared ray (670 nm, 1.2 J/cm^2) irradiated): apoptosis occurred in proportional to the time for irradiation
apoptosis / cell viability (%) (near infrared ray not irradiated): apoptosis did not occur
